System: darkling beetles (Alphitobius diaperinus)
Assay: Poultry house litter treatment, darkling beetle population monitored with 9 traps
Assay type: in vivo
Conditions: water-dispersible granules 80% compound (A), 150 g/ha; during the 10th week (end of a rearing cycle)
Method: The treatment took place on the clean litter before the poultry was installed therein. The clean litter was essentially composed of straw.
On the day after the treatment, a group of chicks aged 1 to 2 days was installed in the rearing house at the rate of approximately 7 animals per m^2.
The change in the population of darkling beetles (Alphitobius diaperinus) in the litter was regularly monitored using 9 homogeneously distributed traps. Measurements were carried out each week from the second week after the treatment until rearing was halted.
The total population of darkling beetles in the 9 traps of the treated poultry house varied between 11 and 96 until the 9th week after treatment whereas, in a similar but untreated poultry house, the population of darkling beetles (larvae and adults) oscillated between 1000 and 3000 at each counting point.

N#Cc1nn(-c2c(Cl)cc(C(F)(F)F)cc2Cl)c(N)c1[S+]([O-])C(F)(F)F (stereo not shown) [compound (A), 1-[2,6-Cl2-4-CF3phenyl]-3-CN-4-[SO—CF3]-5-NH2pyrazole]
control of darkling beetles: 86%

Source: US6524603B1, “Process and composition for the antiparasitic treatment of the surroundings of animals” (priority 1996, dated 2003)
